Test results published in patent US9283163B2, “Collagen stimulators and their use in the treatment of skin” (Avon Products, Inc., priority 2012, dated 2016).

System: Normal Human dermal fibroblasts
Assay: Stimulation of collagen production: Procollagen Type-I C-Peptide EIA on conditioned media
Format: cell-based
Details: 0.0005% compound, 48 hours, p<0.05
Method: Cell Treatment: Normal Human dermal fibroblasts were grown in DMEM (Mediatech; cat. #: 15-013-CV) containing 10% Fetal Bovine Serum (Perbio; cat. #: SH30070.03), Penicillin/Streptomycin (Mediatech, Cat #30-001-C1), L-Glutamine (Mediatech; cat. #: 25-005-CI) at 37° C. and 10% CO2. Cells were stripped of serum overnight, followed by treatment with the compound of Formula I(b) (0.0005%) or vehicle (DMSO), in the absence of serum for 48 hours.
Reading was measured at 450 nm using a spectrophotometer.
Human dermal fibroblasts treated with 0.0005% the compound of Formula I(b) for 48 hours were analyzed by ELISA for expression levels of pro-collagen. […] All values are statistically significant at p<0.05.

In the case of `COc1ccc(Cc2nc(=O)c(CCC(=O)N3CCC(C)CC3)n[nH]2)cc1OC` [Formula I(b)], the “pro-collagen, relative to control, vehicle treated cells” value (ELISA, result in words) is reported as “significant increase” and the Procollagen (serum-free, procollagen in conditioned media by ELISA, vehicle (DMSO) control = 100%) is reported as 146%.
